Laboratory results as given in patent US4331597A, “Penicillin compounds” (Meiji Seika Kaisha, Ltd., priority 1979, dated 1982).
Converted amounts (≈) assume the structure as drawn. Counter-ions that a name gives are not always drawn.

Tests used:
Experiment in all cases: Minimum inhibitory concentration test, agar dilution method (plate)
Type in all cases: cell-based
[1] = tested on: Citrobacter freundii GN346 (CSase)
Procedure: (§1) Antimicrobial test (i.e., minimum inhibitory concentration test) on compounds obtained according to this invention was conducted according to the Japan chemotherapy method, using Apalcillin (PC-904) for comparison purposes.
(§2) Minimum Inhibitory Concentration(γ/ml)
(§3) in Agar Dilution Method (Plate)

Escherichia coli 255 = tested on: Escherichia coli 255
Procedure: as §1, §2, §3

Escherichia coli GN206 = tested on: Escherichia coli GN206
Procedure: as §1, §2, §3

[2] = tested on: Klebsiella pneumoniae GN69
Procedure: as §1, §2, §3

[3] = tested on: Proteus morganii 1510 (CSase); conditions: Morganella morganii
Procedure: as §1, §2, §3

Proteus vulgaris OX19 = tested on: Proteus vulgaris OX19
Procedure: as §1, §2, §3

[4] = tested on: Pseudomonas aeruginosa E-2; conditions: E2
Procedure: as §1, §2, §3

[5] = tested on: Pseudomonas aeruginosa M-0002; conditions: M0002
Procedure: as §1, §2, §3

[6] = tested on: Pseudomonas capacia M-0501; conditions: M0501
Procedure: as §1, §2, §3

[7] = tested on: Pseudomonas cepacia M-0513; conditions: Burkholderia cepacia, M0513
Procedure: as §1, §2, §3

[8] = tested on: Pseudomonas maltophilia 602; conditions: Stenotrophomonas maltophilia
Procedure: as §1, §2, §3

[9] = tested on: Serratia marcescens No. 1
Procedure: as §1, §2, §3

[10] = tested on: Serratia species GN629 (CSase)
Procedure: as §1, §2, §3

[11] = tested on: Staphylococcus aureus 209PJC-1; conditions: 209PJC1
Procedure: as §1, §2, §3

[12] = tested on: Staphylococcus aureus Smiths-424; conditions: SMITHS424
Procedure: as §1, §2, §3

[13] = tested on: Streptococcus faecalis ATCC6633; conditions: Enterococcus faecalis
Procedure: as §1, §2, §3

CC1(C)S[C@@H]2[C@H](NC(=O)[C@H](NC(=O)c3cnc4cccnc4c3O)c3ccccc3)C(=O)N2[C@H]1C(=O)O [PC-904, reference compound]
MIC [1]: 12.5 µg/mL (≈ 24 µM)
MIC (Escherichia coli 255): 50 µg/mL (≈ 95.9 µM)
MIC (Escherichia coli GN206): 25 µg/mL (≈ 47.9 µM)
MIC [2]: 50 µg/mL (≈ 95.9 µM)
MIC [3]: 100 µg/mL (≈ 192 µM)
MIC (Proteus vulgaris OX19): 0.39 µg/mL (≈ 0.748 µM)
MIC [4]: 1.56 µg/mL (≈ 2.99 µM)
MIC [5]: 0.78 µg/mL (≈ 1.5 µM)
MIC [6]: 12.5 µg/mL (≈ 24 µM)
MIC [7]: 25 µg/mL (≈ 47.9 µM)
MIC [8]: 50 µg/mL (≈ 95.9 µM)
MIC [9]: 1.56 µg/mL (≈ 2.99 µM)
MIC [10]: 25 µg/mL (≈ 47.9 µM)
MIC [11]: 0.39 µg/mL (≈ 0.748 µM)
MIC [12]: 0.39 µg/mL (≈ 0.748 µM)
MIC [13]: 6.25 µg/mL (≈ 12 µM)

COc1ccc(COc2ccc(-c3ccc(C(=O)N[C@@H](C(=O)N[C@@H]4C(=O)N5[C@@H]4SC(C)(C)[C@@H]5C(=O)O)c4ccc(O)cc4)c(=O)[nH]3)cc2OC)cc1OC [Example 3, 6-[4-(3,4-dimethoxybenzyloxy)-3-methoxyphenyl]-1,2-dihydro-2-oxonicotinyl amoxycillin]
MIC [1]: 1.56 µg/mL (≈ 2.06 µM)
MIC (Escherichia coli 255): 6.25 µg/mL (≈ 8.24 µM)
MIC (Escherichia coli GN206): 1.56 µg/mL (≈ 2.06 µM)
MIC [2]: 25 µg/mL (≈ 32.9 µM)
MIC [3]: 50 µg/mL (≈ 65.9 µM)
MIC (Proteus vulgaris OX19): 0.39 µg/mL (≈ 0.514 µM)
MIC [4]: 6.25 µg/mL (≈ 8.24 µM)
MIC [5]: 3.13 µg/mL (≈ 4.12 µM)
MIC [6]: 3.13 µg/mL (≈ 4.12 µM)
MIC [7]: 3.13 µg/mL (≈ 4.12 µM)
MIC [8]: 25 µg/mL (≈ 32.9 µM)
MIC [9]: 1.56 µg/mL (≈ 2.06 µM)
MIC [10]: 6.25 µg/mL (≈ 8.24 µM)
MIC [11]: 0.39 µg/mL (≈ 0.514 µM)
MIC [12]: 0.2 µg/mL (≈ 0.264 µM)
MIC [13]: 3.13 µg/mL (≈ 4.12 µM)

COc1ccc(-c2ccc(C(=O)N[C@@H](C(=O)N[C@@H]3C(=O)N4[C@@H]3SC(C)(C)[C@@H]4C(=O)O)c3ccc(O)cc3)c(=O)[nH]2)cc1OC [Example 1, sodium salt of 6-(3,4-dimethoxyphenyl)-1,2-dihydro-2-oxonicotinylamoxycillin]
MIC [1]: 6.25 µg/mL
MIC (Escherichia coli 255): 12.5 µg/mL
MIC (Escherichia coli GN206): 3.13 µg/mL
MIC [2]: 25 µg/mL
MIC [3]: 100 µg/mL
MIC (Proteus vulgaris OX19): 0.39 µg/mL
MIC [4]: 3.13 µg/mL
MIC [5]: 0.78 µg/mL
MIC [6]: 12.5 µg/mL
MIC [7]: 12.5 µg/mL
MIC [8]: 12.5 µg/mL
MIC [9]: 0.78 µg/mL
MIC [10]: 6.25 µg/mL
MIC [11]: 0.39 µg/mL
MIC [12]: 0.39 µg/mL
MIC [13]: 3.13 µg/mL
